The text below walks through data of paper PMC11855827, “High-Throughput Screening of Five Compound Libraries for Anthelmintic Activity and Toxicity Leads to the Discovery of Two Flavonoid Compounds” (International Journal of Molecular Sciences, 2025).

Where “and” joins values, the source holds several entries; their conditions need not be identical. Equal entries are not always repeated. Where two headings read alike, the source gives them in different places.

The subject of this assay is C. elegans.
Where [1] appears, read: Table S2, C. elegans SS assay, 110 μM, 0 h, averages of 4 data points.
[2] abbreviates: Table S2, C. elegans SS assay, 110 μM, 24 h, averages of 4 data points.

In the case of `O=C([O-])c1ccccc1O.[Na+]` [Sodium Salicylate], the “Percentage of motility inhibition 0 h” value under setting [1] was 2%. The “Percentage of motility inhibition 24 h” value under setting [2] came to 4%.

`O.O.O=C([O-])CC(O)(CC(=O)[O-])C(=O)[O-].[Na+].[Na+].[Na+]` [Sodium citrate (dihydrate)]: the “Percentage of motility inhibition 0 h” value under setting [1] was determined as 32%. For the same molecule, under setting [2], the “Percentage of motility inhibition 24 h” value is reported as 2%.

`CCCCCCCC/C=C\CCCCCCCC(=O)[O-].[Na+]` [Sodium oleate]: the “Percentage of motility inhibition 0 h” value under setting [1] worked out at 0%. In addition, under setting [2], the “Percentage of motility inhibition 24 h” value is 0%.

Take `O.O=C1C=CC[C@@H]2[C@H]3CCCN4CCC[C@@H](CN12)[C@@H]34` [Sophocarpine (monohydrate)]: the “Percentage of motility inhibition 0 h” value under setting [1] stood at 0%. Further, the “Percentage of motility inhibition 24 h” value under setting [2] was found to be 0%.

Take `CC(=O)OC[C@H]1O[C@@H](O[C@@H]2[C@@H](O)[C@H](O[C@@H]3[C@H](O)C(C)(C)C[C@H]4C5=CC[C@@H]6[C@@]7(C)CC[C@H](O[C@@H]8O[C@H](C(=O)O)[C@@H](O)[C@H](O)[C@H]8O[C@@H]8O[C@H](CO)[C@H](O)[C@H](O)[C@H]8O[C@@H]8O[C@H](CO)[C@@H](O)[C@H](O)[C@H]8O)[C@](C)(CO)[C@@H]7CC[C@@]6(C)[C@]5(C)CC[C@@]34C)OC[C@@H]2O)[C@H](OC(C)=O)[C@@H](OC(C)=O)[C@@H]1OC(C)=O` [Soyasaponin Ab]: under setting [1], the “Percentage of motility inhibition 0 h” value is 21%. Further, the “Percentage of motility inhibition 24 h” value under setting [2] was 4%.

As for `CC1(C)C[C@@H](O)[C@]2(C)CC[C@]3(C)C(=CC[C@@H]4[C@@]5(C)CC[C@H](O[C@@H]6O[C@H](C(=O)O)[C@@H](O)[C@H](O)[C@H]6O[C@@H]6O[C@H](CO)[C@H](O)[C@H](O)[C@H]6O[C@@H]6O[C@H](CO)[C@@H](O)[C@H](O)[C@H]6O)[C@](C)(CO)[C@@H]5CC[C@]43C)[C@@H]2C1` [Soyasaponin Ba], the “Percentage of motility inhibition 0 h” value under setting [1] is 0%. Also, the “Percentage of motility inhibition 24 h” value under setting [2] is given as 25%.

Regarding `C[C@@H]1O[C@@H](O[C@H]2[C@H](O[C@H]3[C@H](O[C@H]4CC[C@@]5(C)[C@@H](CC[C@]6(C)[C@@H]5CC=C5[C@@H]7CC(C)(C)C[C@@H](O)[C@]7(C)CC[C@]56C)[C@@]4(C)CO)O[C@H](C(=O)O)[C@@H](O)[C@@H]3O)O[C@H](CO)[C@H](O)[C@@H]2O)[C@H](O)[C@H](O)[C@H]1O` [Soyasaponin Bb], the “Percentage of motility inhibition 0 h” value under setting [1] is 0%. The “Percentage of motility inhibition 24 h” value under setting [2] came to 0%.

Regarding `CN[C@@H]1[C@H](O)[C@H](NC)[C@H]2O[C@@]3(O)C(=O)C[C@@H](C)O[C@H]3O[C@@H]2[C@H]1O.Cl.Cl` [Spectinomycin (dihydrochloride)], the “Percentage of motility inhibition 0 h” value under setting [1] is recorded as 0%. The “Percentage of motility inhibition 24 h” value under setting [2] is given as 1%.

As to `COc1cc2oc(-c3ccc(O)cc3)cc(=O)c2c(O)c1[C@@H]1O[C@H](CO)[C@@H](O)[C@H](O)[C@H]1O[C@@H]1O[C@H](CO)[C@@H](O)[C@H](O)[C@H]1O` [Spinosin], under “110 µM”, the “Percentage of motility inhibition 0 h” value is given as 2% and the “Percentage of motility inhibition 24 h” value came to 6%.

As for `CCC(C)(C)C(=O)OC1=C(c2ccc(Cl)cc2Cl)C(=O)OC12CCCCC2` [Spirodiclofen], under setting [1], the “Percentage of motility inhibition 0 h” value is recorded as 5%. In addition, under setting [2], the “Percentage of motility inhibition 24 h” value is recorded as 0%.

`C[N+]1(C)CCC[C@H]1C(=O)[O-].Cl` [Stachydrine hydrochloride]: under setting [1], the “Percentage of motility inhibition 0 h” value worked out at 15%. For the same molecule, the “Percentage of motility inhibition 24 h” value under setting [2] is 26%.

As to `C[N+]1(C)CCC[C@H]1C(=O)[O-]` [Stachydrine], the “Percentage of motility inhibition 0 h” value under setting [1] is listed as 0%. Besides, the “Percentage of motility inhibition 24 h” value under setting [2] was found to be 0%.

For the molecule `CCCCCCCCCCCCCCCCCCOC(=O)[C@@]1(C)CC[C@]2(C)CC[C@]3(C)C(=CC(=O)[C@@H]4[C@@]5(C)CC[C@H](O)C(C)(C)[C@@H]5CC[C@]43C)[C@@H]2C1` [Stearyl glycyrrhetinate], the “Percentage of motility inhibition 0 h” value under setting [1] was 0%. Besides, the “Percentage of motility inhibition 24 h” value under setting [2] came to 0%.

In the case of `C=C1C[C@@]23CC[C@H]4[C@@](C)(CCC[C@@]4(C)C(=O)O)[C@@H]2CC[C@]1(O[C@@H]1O[C@H](CO)[C@@H](O)[C@H](O)[C@H]1O[C@@H]1O[C@H](CO)[C@@H](O)[C@H](O)[C@H]1O)C3` [Steviolbioside], under setting [1], the “Percentage of motility inhibition 0 h” value came to 10%. In addition, the “Percentage of motility inhibition 24 h” value under setting [2] amounted to 5%.

As to `CN[C@@H]1[C@H](O[C@H]2[C@H](O[C@H]3[C@H](O)[C@@H](O)[C@H](N=C(N)N)[C@@H](O)[C@@H]3N=C(N)N)O[C@@H](C)[C@]2(O)C=O)O[C@@H](CO)[C@H](O)[C@H]1O.CN[C@@H]1[C@H](O[C@H]2[C@H](O[C@H]3[C@H](O)[C@@H](O)[C@H](N=C(N)N)[C@@H](O)[C@@H]3N=C(N)N)O[C@@H](C)[C@]2(O)C=O)O[C@@H](CO)[C@H](O)[C@H]1O.O=S(=O)(O)O.O=S(=O)(O)O.O=S(=O)(O)O` [Streptomycin (sulfate)], the “Percentage of motility inhibition 0 h” value under setting [1] is given as 31%. For the same molecule, the “Percentage of motility inhibition 24 h” value under setting [2] is listed as 26%.

Regarding `CC(=O)[N-]S(=O)(=O)c1ccc(N)cc1.[Na+]` [Sulfacetamide (Sodium)], under setting [1], the “Percentage of motility inhibition 0 h” value is listed as 33%. For the same molecule, the “Percentage of motility inhibition 24 h” value under setting [2] is 6%.

Take `Nc1ccc(S(=O)(=O)Nc2cncc(Cl)n2)cc1` [Sulfaclozine]: the “Percentage of motility inhibition 0 h” value under setting [1] turned out to be 3%. Under setting [2], the “Percentage of motility inhibition 24 h” value worked out at 1%.

Consider `Nc1ccc(S(=O)(=O)[N-]c2nccs2)cc1.[Na+]` [Sulfathiazole (sodium)], for which the “Percentage of motility inhibition 0 h” value under setting [1] is 15%. The “Percentage of motility inhibition 24 h” value under setting [2] was 6%.

Regarding `Cc1cc(NS(=O)(=O)c2ccc(N)cc2)nc(C)n1` [Sulfisomidin], under setting [1], the “Percentage of motility inhibition 0 h” value worked out at 26%. Further, the “Percentage of motility inhibition 24 h” value under setting [2] turned out to be 10%.

Turning to `CNCC(O)c1ccc(O)cc1.Cl` (centres unmarked) [Synephrine (hydrochloride)], the “Percentage of motility inhibition 0 h” value under setting [1] was found to be 0%. Further, the “Percentage of motility inhibition 24 h” value under setting [2] is recorded as 4%.

Regarding `CC(=O)OC[C@]12C[C@H](OC(=O)CC(C)C)C(C)=C[C@H]1O[C@@H]1[C@H](O)[C@@H](OC(C)=O)[C@@]2(C)[C@]12CO2` [T-2 Toxin], for the setting “110 µM”, the “Percentage of motility inhibition 0 h” value was determined as 11% and the “Percentage of motility inhibition 24 h” value is reported as 2%.

Turning to `Cc1ccc(CCCO)c(NCc2ccc3nc(NCCCN4CCOCC4)n(Cc4nc(C)ccc4O)c3c2)c1` [TMC353121], the “Percentage of motility inhibition 0 h” value under setting [1] worked out at 25%. For the same molecule, under setting [2], the “Percentage of motility inhibition 24 h” value is listed as 4%.

As for `C=C1CC[C@]2(C)CC[C@]3(C)[C@H](CC[C@@H]4[C@@]5(C)CC[C@H](O)C(C)(C)[C@@H]5CC[C@]43C)[C@H]2[C@@H]1C` [Taraxasterol], the “Percentage of motility inhibition 0 h” value under setting [1] was determined as 1%. Further, the “Percentage of motility inhibition 24 h” value under setting [2] was determined as 2%.

In the case of `CCN(CC)c1nc2c(S(=O)(=O)c3ccc(Cl)cc3)nnn2c2cc(OC)c(OC)cc12` [Targocil], the “Percentage of motility inhibition 0 h” value under setting [1] stood at 21%. Also, the “Percentage of motility inhibition 24 h” value under setting [2] is 11%.

Regarding `C[C@H](CCC(=O)NCCS(=O)(=O)[O-])[C@H]1CC[C@H]2[C@@H]3CC[C@@H]4C[C@H](O)CC[C@]4(C)[C@H]3C[C@H](O)[C@]12C.[Na+]` [Taurodeoxycholic acid (sodium hydrate)], the “Percentage of motility inhibition 0 h” value under setting [1] is on record as 8%. Further, under setting [2], the “Percentage of motility inhibition 24 h” value is 3%.

For `C[C@@H]1O[C@@H](Oc2cc(O)c3c(c2)O[C@H](c2ccc(O)c(O)c2)[C@@H](O)C3=O)[C@H](O)[C@H](O)[C@H]1O` [Taxifolin 7‐O‐rhamnoside], under setting [1], the “Percentage of motility inhibition 0 h” value amounted to 33%. Further, under setting [2], the “Percentage of motility inhibition 24 h” value worked out at 12%.

As for `COc1cc(O)c2c(=O)cc(-c3ccccc3)oc2c1` [Tecto chrysin], under setting [1], the “Percentage of motility inhibition 0 h” value was found to be 0%. Under setting [2], the “Percentage of motility inhibition 24 h” value amounted to 11%.

Consider `COc1c(O[C@@H]2O[C@H](CO[C@@H]3OC[C@@H](O)[C@H](O)[C@H]3O)[C@@H](O)[C@H](O)[C@H]2O)cc2occ(-c3ccc(O)cc3)c(=O)c2c1O` [Tectorigenin 7‐O‐Xylosyl Glucoside], for which the “Percentage of motility inhibition 0 h” value under setting [1] was 0%. Further, under setting [2], the “Percentage of motility inhibition 24 h” value was found to be 1%.

In the case of `Cn1nnc(-c2ccc(-c3ccc(N4C[C@H](COP(=O)(O)O)OC4=O)cc3F)cn2)n1` [Tedizolid (phosphate)], the “Percentage of motility inhibition 0 h” value under setting [1] stood at 10%. Also, the “Percentage of motility inhibition 24 h” value under setting [2] is 12%.

As to `CC(C)OC(=O)OCOP(=O)(CO[C@H](C)Cn1cnc2c(N)ncnc21)OCOC(=O)OC(C)C.O=C(O)/C=C/C(=O)O` [Tenofovir (Disoproxil Fumarate)], the “Percentage of motility inhibition 0 h” value under setting [1] is given as 5%. Moreover, under setting [2], the “Percentage of motility inhibition 24 h” value stood at 1%.

`CC(C)OC(=O)OCOP(=O)(CO[C@H](C)Cn1cnc2c(N)ncnc21)OCOC(=O)OC(C)C` [Tenofovir (Disoproxil)]: the “Percentage of motility inhibition 0 h” value under setting [1] is 23%. Under setting [2], the “Percentage of motility inhibition 24 h” value is 7%.

Consider `COc1cc(/C=C/C(=O)O[C@H]2[C@H](O)[C@@H](CO)O[C@@]2(CO)O[C@H]2O[C@H](COC(=O)c3ccc(O)cc3)[C@@H](O)[C@H](O)[C@H]2O)cc(OC)c1OC` [Tenuifoliside A], for which the “Percentage of motility inhibition 0 h” value under setting [1] is given as 0%. Besides, the “Percentage of motility inhibition 24 h” value under setting [2] was determined as 15%.

On to `CC1(C)CC[C@]2(C(=O)O)CCC3=C([C@@H](CCl)C[C@@H]4[C@@]5(C)C[C@H](O)[C@H](O)[C@@](C)(C(=O)O)[C@@H]5CC[C@@]34C)[C@@H]2C1` [Tenuigenin], for which the “Percentage of motility inhibition 0 h” value under setting [1] is on record as 11%. For the same molecule, the “Percentage of motility inhibition 24 h” value under setting [2] is listed as 11%.

For the molecule `CC1(O)CCC(C(C)(C)O)CC1.O` (centres unmarked) [Terpin (hydrate)], the “Percentage of motility inhibition 0 h” value under setting [1] was 9%. In addition, the “Percentage of motility inhibition 24 h” value under setting [2] was determined as 5%.

Turning to `CN(C)[C@@H]1C(=O)C(C(N)=O)=C(O)[C@@]2(O)C(=O)C3=C(O)c4c(O)cccc4[C@@](C)(O)[C@H]3C[C@@H]12.Cl` [Tetracycline (hydrochloride)], the “Percentage of motility inhibition 0 h” value under setting [1] turned out to be 26%. Moreover, the “Percentage of motility inhibition 24 h” value under setting [2] came out at 11%.

Consider `COc1cc2c(cc1OC)C1Cc3ccc4c(c3CN1CC2)OCO4` (centres unmarked) [Tetrahydroepiberberine], for which the “Percentage of motility inhibition 0 h” value under setting [1] is 10%. The “Percentage of motility inhibition 24 h” value under setting [2] is recorded as 3%.

With `COc1cc2c(cc1OC)C1Cc3ccc(OC)c(OC)c3CN1CC2.Cl` (centres unmarked) [Tetrahydropalmatine (hydrochloride)], the “Percentage of motility inhibition 0 h” value under setting [1] is reported as 0%. Also, the “Percentage of motility inhibition 24 h” value under setting [2] is 9% and 7%.
